Results published in publication PMC6680932, “Structure–Antioxidant–Antiproliferative Activity Relationships of Natural C7 and C7–C8 Hydroxylated Flavones and Flavanones” (Antioxidants, 2019).
Read-outs that look alike come from different tables or passages of the source.

Assays:
[1] = test system: MV-4-11 (biphenotypic B myelomonocytic leukemia); assay: Antiproliferative activity in vitro, MTT assay; format: cell-based, human; settings: read-out: IC50 ± SD MV-4-11
[2] = test system: HLMEC (lung microvascular endothelial cells); assay: Antiproliferative activity in vitro, SRB assay; format: cell-based, human; settings: 72 h exposure, SRB, normal cell line, read-out: IC50 ± SD HLMEC
Method: (§1) The antiproliferative studies were performed in vitro using human cancer cell lines—MV-4-11 (biphenotypic B myelomonocytic leukemia), MCF7 (breast carcinoma), LoVo (colon cancer), LoVo/DX (colon cancer doxorubicin-resistant), and DU 145 (prostate cancer)—and normal human cell lines—MCF 10A (breast cells) and HLMEC (lung microvascular endothelial cells). The cell lines MV-4-11, LoVo, DU 145, and MCF 10A were obtained from the American Type Culture Collection (Rockville, Maryland, USA), MCF7 from the European Collection of Authenticated Cell Cultures (ECACC, Salisbury, UK), LoVo/DX courtesy of Professor E. Borowski (Technical University of Gdansk, Poland), and HLMECs (which had been already immortalized by transfection with pSV3-neoplasmid containing large T-antigen gene) were the kind gift of Professor Claudine Kieda (Center for Molecular Biophysics, Orleans, France). The cell lines are being maintained in the Hirszfeld Institute of Immunology and Experimental Therapy, Polish Academy of Sciences (HIIET, PAS), Wroclaw, Poland. All cell lines were grown at 37 °C with 5% CO2 humidified atmosphere. The MV-4-11 cells were cultured in RPMI 1640 medium with GlutaMAX (Gibco, Scotland, UK), supplemented with 1 mM sodium pyruvate and 10% fetal bovine serum (both from Sigma-Aldrich, Poznan, Poland). The MCF7 cells were cultured in Eagle medium (HIIET, PAS, Wroclaw, Poland) supplemented with 2 mM L-glutamine, 10% fetal bovine serum, 1% nonessential amino acid solution, and 0.8 mg/L of insulin (all from Sigma-Aldrich, Poznan, Poland). The LoVo and LoVo/DX cells were cultured in a 1:1 (v/v) mixture of RPMI 1640 and Opti-MEM (both HIIET, PAS, Wroclaw, Poland), supplemented with 1 mM sodium pyruvate, 2 mM L-glutamine, and 5% fetal bovine serum (all from Sigma-Aldrich, Poznan, Poland). For LoVo/DX cells, additionally 10 µg/100 mL of doxorubicin (Accord Healthcare) was added to the medium. DU 145 cells were cultured in Eagle medium (HIIET, PAS, Wroclaw, Poland) supplemented with 1 mM sodium pyruvate, 4 mM L-glutamine, and 10% fetal bovine serum (all from Sigma-Aldrich, Poznan, Poland). The MCF 10A cells were cultured in the F-12 nutrient mixture (Gibco, Scotland, UK), supplemented with 5% horse serum (Gibco, Scotland, UK), 0.05 μg/mL of cholera toxin (Vibrio cholerae), 0.5 μg/mL of hydrocortisone, 10 μg/mL of insulin, and 20 ng/mL of human epidermal growth factor (all from Sigma-Aldrich, Poznan, Poland). The HLMEC cells were cultured in the RPMI 1640 medium (HIIET, PAS, Wroclaw, Poland) with the addition of 2 mM L-glutamine (Sigma-Aldrich, Poznan, Poland) and 10% fetal bovine serum (GE Healthcare). All culture media were supplemented with 100 units/mL penicillin (Polfa Tarchomin S.A., Warsaw, Poland) and 100 µg/mL streptomycin (Sigma-Aldrich, Poznan, Poland). Twenty-four hours before addition of the tested agents, the cells were plated in 96-well plates (Sarstedt, Germany) at a density of 1 × 10^4 (1 × 10^3 for HLMEC and 0.75 × 10^4 for MCF7) cells per well in 100 μL of culture medium.
(§2) Tested compounds were dissolved in DMSO and then diluted in a 1:1 (v/v) mixture of RPMI 1640 (HIIET, PAS, Wroclaw, Poland) and Opti-MEM (Gibco, Scotland, UK) medium supplemented with 2 mM L-glutamine (Sigma-Aldrich, Poznan, Poland), 5% fetal bovine serum (GE Healthcare), 100 units/mL penicillin (Polfa Tarchomin S.A., Warsaw, Poland), and 100 µg/mL streptomycin (Sigma-Aldrich, Poznan, Poland). The antiproliferative effects of the flavonoids were examined after 72 h of exposure of the cultured cells to varying concentrations of the tested agents (from 0.1 to 100 μg/mL) using the MTT (for MV-4-11 cells) or SRB assay described below. Cisplatin (chemotherapy drug used to treat a number of cancers) was used as a positive control. The results are presented as an inhibitory concentration 50 (IC50), which is the concentration of the tested agent that inhibits proliferation of the cell population by 50%. IC50 values for each experiment were calculated separately. […]

LoVo (colon cancer) = assay: Antiproliferative activity in vitro, SRB assay; format: cell-based, human; settings: 72 h exposure, SRB, read-out: IC50 ± SD LoVo
Method: as §1, §2

MCF 10A (breast cells) = assay: Antiproliferative activity in vitro, SRB assay; format: cell-based, human; settings: 72 h exposure, SRB, normal cell line, read-out: IC50 ± SD MCF 10A
Method: as §1, §2

MCF7 (breast carcinoma) = assay: Antiproliferative activity in vitro, SRB assay; format: cell-based, human; settings: 72 h exposure, SRB, read-out: IC50 ± SD MCF7
Method: as §1, §2

[3] = test system: LoVo/DX (colon cancer doxorubicin-resistant); assay: Antiproliferative activity in vitro, SRB assay; format: cell-based, human; settings: 72 h exposure, read-out: IC50 ± SD LoVo/DX
DU 145 (prostate cancer) = assay: Antiproliferative activity in vitro, SRB assay; format: cell-based, human; settings: 72 h exposure, SRB, read-out: IC50 ± SD DU 145
[4] = ABTS radical cation decolorization assay; settings: 6 min incubation, 734 nm; mean ± SD
Method: (§3) The antioxidant capacity of flavonoids was measured in three separate tests: ABTS, DPPH, and ferric ion reducing antioxidant power (FRAP) assays (ABTS, DPPH, and FRAP reagents from Sigma-Aldrich). All tested compounds were dissolved in DMSO. All determinations were performed in triplicate. Standard curves were prepared for all assays using different concentrations of Trolox (6-hydroxy-2,5,7,8-tetramethylchroman-2-carboxylic acid) (Sigma-Aldrich). Trolox is a water-soluble analogue of vitamin E with high antioxidant activity, commonly used as a control and a reference in studies of antioxidant activity. The results were expressed as the equivalent of μmol Trolox per μmol of the test compound. The absorbance was measured using a UV-2401 PC spectrophotometer (Shimadzu, Kyoto, Japan). Concentrations of the tested samples were in the range from 50 µg/mL to 10 mg/mL.
The radical cation scavenging capacity of the tested compounds was examined against ABTS^+ (2,2’-azino-bis(3-ethylbenzo-thiazoline-6-sulfonic acid) according to the procedure described by Re et al. with some modifications. The test sample (30 μL) of known concentration was mixed in a polystyrene cuvette with 3 mL of ABTS solution with a measured absorption of 0.700 at a wavelength of λ = 734 nm. After 6 min of incubation, the absorption of samples was recorded. The ABTS reagent was freshly prepared before each experiment.

[5] = DPPH free radical scavenging activity assay; settings: 10 min, 517 nm; mean ± SD
Method: as §3
The DPPH (2,2-diphenyl-1-picrylhydrazyl) radical scavenging activity of samples was determined according to the method described by Yen and Chen with some modifications. Samples (0.1 mL) of known concentration were mixed in polystyrene cuvettes with 2 mL of 0.04 mM DPPH in ethanol and 0.4 mL of ethanol. The absorbance was measured after 10 min at λ = 517 nm. The DPPH reagent was freshly prepared before each experiment.

[6] = FRAP (ferric ion reducing antioxidant power) assay; settings: 10 min, 593 nm; mean ± SD
Method: as §3
The FRAP method is based on measuring the ability of antioxidants to reduce ferric 2,4,6-tris(2-pyridyl)-1,3,5-triazine [Fe(III)-TPTZ] in the blue colored ferrous form, which absorbs light at λ = 593 nm. The Fe(III)-TPTZ reagent was prepared as a mixture of acetate buffer (pH 3.6), 10 mM TPTZ in 40 mM HCl, and 20 mM FeCl3 in the ratio of 10:1:1 (v/v/v). The FRAP reagent was freshly prepared before each experiment. The samples (0.1 mL) were mixed in polystyrene cuvettes with 3 mL of ferric complex and 0.9 mL of distilled water. The absorbance was measured after 10 min at λ = 593 nm.

[7] = Stability of flavonoids in DMSO (control), HPLC; format: physicochemical; settings: 3 h of incubation
Method: (§4) Flavonoids were dissolved (as described in Section 2.4) to the concentration of 100 µg/mL. The solutions corresponding to the solutions before the administration to the cell cultures were incubated in 96-well plates for 3 h and transferred to microtubes containing 400 µL of cold methanol (−20 °C) and kept at −20 °C for 1 h. After centrifugation at 12,000× g for 10 min, samples were analyzed by HPLC. Control experiments were also carried out to determine the stability of flavonoids in DMSO under analogous conditions.

[8] = Stability of flavonoids before administration to the cell cultures (diluted in RPMI 1640/Opti-MEM medium), HPLC; format: physicochemical; settings: 100 µg/mL, medium with 2 mM L-glutamine, 5% fetal bovine serum, penicillin, streptomycin; 3 h incubation
Method: Tested compounds were dissolved in DMSO and then diluted in a 1:1 (v/v) mixture of RPMI 1640 (HIIET, PAS, Wroclaw, Poland) and Opti-MEM (Gibco, Scotland, UK) medium supplemented with 2 mM L-glutamine (Sigma-Aldrich, Poznan, Poland), 5% fetal bovine serum (GE Healthcare), 100 units/mL penicillin (Polfa Tarchomin S.A., Warsaw, Poland), and 100 µg/mL streptomycin (Sigma-Aldrich, Poznan, Poland). The antiproliferative effects of the flavonoids were examined after 72 h of exposure of the cultured cells to varying concentrations of the tested agents (from 0.1 to 100 μg/mL) using the MTT (for MV-4-11 cells) or SRB assay described below. Cisplatin (chemotherapy drug used to treat a number of cancers) was used as a positive control. The results are presented as an inhibitory concentration 50 (IC50), which is the concentration of the tested agent that inhibits proliferation of the cell population by 50%. IC50 values for each experiment were calculated separately.
as §4

[9] = Homo sapiens, MV4-11, 72 h exposure

Compound	IC50 ([1]; 72 h exposure) [µM]	IC50 [2] [µM]	IC50 (LoVo (colon cancer)) [µM]	IC50 (MCF 10A (breast cells)) [µM]	IC50 (MCF7 (breast carcinoma)) [µM]	IC50 [3] [µM]	IC50 (DU 145 (prostate cancer)) [µM]	TEAC ABTS [4]	TEAC DPPH [5]	TEAC FRAP [6]	IC50 [1, 9] [µM]	IC50 ([2]; Homo sapiens, Endothelial cell) [µM]	IC50 (LoVo (colon cancer); Homo sapiens, LoVo, 72 h) [µM]	IC50 (MCF 10A (breast cells); Homo sapiens, MCF-10A) [µM]	IC50 (MCF7 (breast carcinoma); Homo sapiens, MCF7) [µM]	IC50 ([3]; Homo sapiens, LoVo/DX) [µM]	IC50 (DU 145 (prostate cancer); Homo sapiens, DU-145) [µM]	compound observed after incubation in DMSO [7]	stability after dilution with 1:1 RPMI 1640/Opti-MEM medium [8]
N.N.[Cl][Pt][Cl] [Cisplatin, reference compound]	1.6 ± 0.33	1.07 ± 0.05	5.87 ± 1.72	10.6 ± 1.17	7.5 ± 1.32	3.23 ± 0.77	1.47 ± 0.12												
O=c1cc(-c2ccc(O)c(O)c2)oc2cc(O)cc(O)c12 [Compound 3, luteolin]			13.5 ± 0.65					16.645 ± 0.897 µmol trolox per µmol of tested	10.50 ± 0.117 µmol trolox per µmol of tested	17.686 ± 0.327 µmol trolox per µmol of tested	8.73 ± 2.23	9.22 ± 0.64	14 to 15	33.1 ± 10.3	25.5 ± 6.33	13.7 ± 1.65	21.9 ± 6.11		
O=C1C[C@@H](c2ccccc2)Oc2cc(O)cc(O)c21 [Compound 5, Pinocembrin]								0.165 ± 0.009 µmol trolox per µmol of tested	0.005 ± 0.001 µmol trolox per µmol of tested		99.1 ± 34.1	96.6 ± 7.23	116 ± 10.6	125 ± 5.77	148 ± 6.57	67 ± 15.8	119 ± 22.4		
COc1ccc([C@@H]2CC(=O)c3c(O)cc(O)cc3O2)cc1O [Compound 8, hesperetin]								13.254 ± 0.123 µmol trolox per µmol of tested	0.098 ± 0.002 µmol trolox per µmol of tested	4.025 ± 0.175 µmol trolox per µmol of tested	140 ± 12.9	98.3 ± 7.62	104 ± 5.55	207 ± 23.4	167 ± 13.1	77.2 ± 19.4	215 ± 32.1		
O=C1C[C@@H](c2ccc(O)cc2)Oc2c(O)c(O)cc(O)c21 [Compound 14, 8-hydroxynaringenin]																		over 99%	complete decomposition
O=C1C[C@@H](c2ccc(O)cc2)Oc2cc(O)c(O)c(O)c21 [Compound 15, 6-hydroxynaringenin]																		over 99%	complete decomposition
